The record followed here is patent US10351594B2, “Process for preparing compounds having triple activities of thrombolysis, antithrombosis, and radical scavenging” (Shanghai Lumosa Therapeutics Co., Ltd., priority 2013, dated 2019).

Broadly, the EC50 is the concentration giving half of the maximal effect.

“Also recorded” adds a separate entry of the source. Marks after values point to notes of the source that are not given here.

Assay [1] deals with formation of thrombus (rat arteriovenous bypass). Description: Antithrombotic activity via intravenous administration, rat arteriovenous bypass cannula with thread. It is filed as in vivo, male SD rats. As to conditions: for wet weight of thrombus: n = 10. The text has this:
A cannula was composed of 3 segments. The middle segment has a length of 80 mm and an inner diameter of 3.5 mm. […] The pre-weighed, 60 mm in length thread was placed in the middle segment of the polyethylene tube. Both ends of the wider tube sheathed the un-narrowed ends of two polyethylene tubes respectively (0.5 mm of the thread was restrained by one of the segment to fix the thread). The cannula was filled with a heparin solution in normal saline (50 IU/kg) through the tip end by using an injector and was ready for use. 200-220 g male SD rats were anesthetized with 20% urethane solution (6 mL/kg, ip). Anesthetized rats were fixed in a supine position, and the left external jugular vein was separated and penetrated with a suture at the proximal and distal ends respectively, and the distal end was ligated. An incision was carefully made on the exposed left external jugular vein, and the tip end without thread-restraining of the bypass cannula prepared as described above was inserted into the proximal end of the open incision in the left external jugular vein. A precise amount of heparin in normal saline (50 IU/kg) was injected through the tip at the other end by using an injector. Then, the injector was replaced, and precise amount of drug was injected by the same way. At this moment, without removing the injector from the ethylene tube, the right common carotid artery was separated, and the proximal end was clipped by an artery clip. The right common carotid artery was penetrated with a suture at the proximal and distal ends respectively, and the distal end was ligated. An incision was carefully cut across the right common carotid artery near the artery clip. The injector was pulled out of the polyethylene tube through the tip, and the tip of the polyethylene tube was then inserted into the proximal end of the artery incision. Both ends of the bypass cannula were fixed to the artery or vein with #4 sutures. The artery clip was then removed to allow blood to flow from the artery to the vein through the bypass cannula. A rat arteriovenous bypass thrombolysis model was thus established. The process was timed from the beginning of circulation, the thread attached with thrombus was taken out from the bypass cannula after 15 minutes and accurately weighed. The difference in the mass of the thread before and after was determined as the wet weight of the thrombus, which was statistically analyzed and used to evaluate the in vivo antithrombotic activities of the compounds. The wet weight of the thrombus was expressed as average value and standard deviation (x±SD). The drug administration method is intravenous injection. The blank control was normal saline solution, and the dose was 1 mL/kg. The positive control was aspirin, and the dose was 9 mg/kg. The dose of compounds 5Aa-p of the present invention was 0.1 nmol/kg. The method was the same as in example 3. The drug administration method is intravenous injection. The blank control was normal saline solution, and the dose was 3 mL/kg. The positive control was aspirin, and the dose was 9 mg/kg.

A short description of assay [2]: NO radical scavenging activity (MGD/SNAP signal peak height). It is filed as biochemical. Particulars: n = 6. Here is the method: 7.325 mg MGD (N-methyl-glucamine dithiocarbamate, Sigma) was dissolved in 1 mL of pure water to obtain 25 mM MGD solution. […] FeSO4.7H2O was dissolved in 1 mL of pure water to obtain 12.5 mM solution. […] SNAP (S-Nitroso-acetyl penicillamine) was dissolved in 1 mL of pure water to obtain 110 μM green mother liquid, which was diluted 100 folds to obtain 1 μM SNAP solution.
The first peak height of NO signal of 5 μL MGD solution+5 μL FeSO4.7H2O solution+5 μL SNAP solution+5 μL water was measured and repeated for 6 times. This peak height defined as the known peak height of NO signal. The first peak height of NO signal of 5 μL MGD solution+5 μL FeSO4.7H2O solution+5 μL SNAP solution+5 μL solution of one of the compounds 5Aa-p was measured and repeated for 6 times. This peak height defined as the residual peak height of the NO signal scavenged by one of the compounds 5Aa-p. Scavenging ratio=(known peak height of NO signal−residual peak height of NO signal of compounds 5Aa-p)/known peak height of NO signal

Assay [3] in a line: Superoxide anionic radical scavenging activity (xanthine/xanthine oxidase, DMPO). Particulars: n = 6. It is filed as biochemical. As to the method:
[…] xanthine was dissolved in 1 mL of pure water to obtain 0.5 M xanthine solution (milk white color, largely insoluble). Commercially available raw solution of xanthine oxidase was diluted 10 folds to obtain solution of xanthine oxidase. Saturated DETAPAC solution was diluted 20 folds to obtain 0.9 mM solution. 11.316 mg DMPO was dissolved in 1 mL of pure water to obtain 0.1 M DMPO solution.
5 μL DMPO solution+5 μL DETAPAC solution+5 μL xanthine solution+5 μL xanthine oxidase solution+5 μL compounds 5Aa-p solution
The first peak height of superoxide anion signal of 5 μL DMPO solution+5 μL DETAPAC solution+5 μL xanthine solution+5 μL xanthine oxidase solution+5 μL water was measured and repeated for 6 times. This peak height defined as the known peak height of superoxide anion signal. The first peak height of superoxide anion signal of 5 μL DMPO solution+5 μL DETAPAC solution+5 μL xanthine solution+5 μL xanthine oxidase solution+5 μL solution of one of compounds 5Aa-p was measured and repeated for 6 times. This peak height defined as the residual peak height of the superoxide anion signal scavenged by one of the compounds 5Aa-p. Scavenging ratio=(known peak height of superoxide anion signal−residual peak height of superoxide anion signal of compounds 5Aa-p)/known peak height of superoxide anion signal

Assay [4] is described as follows: Hydroxyl free radical scavenging activity (DMPO signal peak height). It is filed as biochemical. As to conditions: n = 6; read-out: EC50 of scavenging •OH. As to the method:
11.316 mg DMPO ([…], Sigma) was dissolved in 1 mL of pure water to obtain 0.1 M DMPO solution. […] FeSO4.7H2O was dissolved in 1 mL of pure water to obtain 10 mM solution. 30% medical H2O2 was diluted to 0.2%.
The first peak height of the OH signal of 2.5 μL FeSO4.7H2O solution+2.5 μL DMPO solution+5 μL H2O2 solution+5 μL water was measured and repeated for 6 times. This peak height defined as the known peak height of OH signal. The first peak height of the OH signal of 2.5 μL FeSO4.7H2O solution+2.5 μL DMPO solution+5 μL H2O2 solution+5 μL solution of one of the compounds 5Aa-p was measured and repeated for 6 times. This peak height defined as the residual peak height of the OH signal scavenged by one of the compounds 5Aa-p. Scavenging ratio=(known peak height of OH signal−residual peak height of OH signal of compounds 5Aa-p)/known peak height of OH signal

[5] abbreviates: rat, 5Aa-p (i.v.) 0.1 nmol/kg, 15 minutes.

Regarding “3S-6,7-dihydroxy-1,1-dimethyl-1,2,3,4-tetrahydro-isoquinoline-3-acyl-Lys(Pro-Ala-Ala) [Compound 5Aa]”, the “wet weight of thrombus” value in assay [1] (setting [5]) is listed as 54.04 ± 6.43^a mg. Further, the concentration for a half-maximal effect (EC50) in assay [2] is 599 ± 38 µM; in assay [3], 477 ± 56 µM; in assay [4] it was 459 ± 66 µM.
Taken in the same sequence, the figures for “3S-6,7-dihydroxy-1,1-dimethyl-1,2,3,4-tetrahydro-isoquinoline-3-acyl-Lys(Pro-Ala-Gly) [Compound 5Ag]” were 54.28 ± 3.57^a mg, 609 ± 95 µM, 467 ± 94 µM and 422 ± 61 µM.
Take “3S-6,7-dihydroxy-1,1-dimethyl-1,2,3,4-tetrahydro-isoquinoline-3-acyl-Lys(Pro-Ala-Val) [Compound 5Ab]”: the “wet weight of thrombus” value in assay [1] (setting [5]) is listed as 54.17 ± 6.61^a mg. The EC50 in assay [2] came out at 532 ± 73 µM; in assay [3], 471 ± 34 µM; in assay [4], 471 ± 71 µM.
Regarding `C[C@H](NC(=O)[C@@H]1CCCN1)C(=O)N[C@@H](Cc1c[nH]c2ccccc12)C(=O)NCCCC[C@H](NC(=O)[C@@H]1Cc2cc(O)c(O)cc2C(C)(C)N1)C(=O)O` [Compound 5Ac, 3S-6,7-dihydroxy-1,1-dimethyl-1,2,3,4-tetrahydro-isoquinoline-3-acyl-Lys(Pro-Ala-Trp)], the “wet weight of thrombus” value in assay [1] (setting [5]) is given as 52.93 ± 3.96^a mg. Besides, the results for the 50% effective concentration (EC50) in assay [2], in assay [3] and in assay [4] were 463 ± 92 µM, 366 ± 71 µM and 378 ± 85 µM, respectively.
Taken in the same sequence, the figures for `C[C@H](NC(=O)[C@@H]1CCCN1)C(=O)N[C@@H](Cc1ccc(O)cc1)C(=O)NCCCC[C@H](NC(=O)[C@@H]1Cc2cc(O)c(O)cc2C(C)(C)N1)C(=O)O` [Compound 5Ad, 3S-6,7-dihydroxy-1,1-dimethyl-1,2,3,4-tetrahydro-isoquinoline-3-acyl-Lys(Pro-Ala-Tyr)] were 51.91 ± 4.97^a mg, 453 ± 41 µM, 354 ± 71 µM and 369 ± 32 µM.
In the same order, the values of `C[C@H](NC(=O)[C@@H]1CCCN1)C(=O)N1CCC[C@H]1C(=O)NCCCC[C@H](NC(=O)[C@@H]1Cc2cc(O)c(O)cc2C(C)(C)N1)C(=O)O` [Compound 5Ae, 3S-6,7-dihydroxy-1,1-dimethyl-1,2,3,4-tetrahydro-isoquinoline-3-acyl-Lys(Pro-Ala-Pro)] are 57.20 ± 6.43^a mg, 617 ± 88 µM, 481 ± 45 µM and 466 ± 47 µM.
Take `C[C@H](NC(=O)[C@@H]1CCCN1)C(=O)N[C@@H](Cc1ccccc1)C(=O)NCCCC[C@H](NC(=O)[C@@H]1Cc2cc(O)c(O)cc2C(C)(C)N1)C(=O)O` [Compound 5Af, 3S-6,7-dihydroxy-1,1-dimethyl-1,2,3,4-tetrahydro-isoquinoline-3-acyl-Lys(Pro-Ala-Phe)]: the “wet weight of thrombus” value in assay [1] (setting [5]) is reported as 54.01 ± 4.25^a mg. The values for the concentration giving a half-maximal response (EC50) in assay [2], in assay [3] and in assay [4] were 568 ± 95 µM, 485 ± 31 µM and 544 ± 43 µM, respectively.
Consider `C[C@H](NC(=O)[C@@H]1CCCN1)C(=O)N[C@@H](CO)C(=O)NCCCC[C@H](NC(=O)[C@@H]1Cc2cc(O)c(O)cc2C(C)(C)N1)C(=O)O` [Compound 5Ah, 3S-6,7-dihydroxy-1,1-dimethyl-1,2,3,4-tetrahydro-isoquinoline-3-acyl-Lys(Pro-Ala-Ser)], for which the “wet weight of thrombus” value in assay [1] (setting [5]) is 50.67 ± 3.71^a mg. For the same molecule, the EC50 in assay [2] amounted to 523 ± 85 µM; in assay [3], 401 ± 72 µM; in assay [4] it was 413 ± 73 µM.
In the same order, the values of `CC[C@H](C)[C@H](NC(=O)[C@H](C)NC(=O)[C@@H]1CCCN1)C(=O)NCCCC[C@H](NC(=O)[C@@H]1Cc2cc(O)c(O)cc2C(C)(C)N1)C(=O)O` [Compound 5Ai, 3S-6,7-dihydroxy-1,1-dimethyl-1,2,3,4-tetrahydro-isoquinoline-3-acyl-Lys(Pro-Ala-Ile)] are 56.12 ± 5.55^a mg, 527 ± 90 µM, 452 ± 64 µM and 495 ± 61 µM.
Take `C[C@H](NC(=O)[C@@H]1CCCN1)C(=O)N[C@H](C(=O)NCCCC[C@H](NC(=O)[C@@H]1Cc2cc(O)c(O)cc2C(C)(C)N1)C(=O)O)[C@@H](C)O` [Compound 5Aj, 3S-6,7-dihydroxy-1,1-dimethyl-1,2,3,4-tetrahydro-isoquinoline-3-acyl-Lys(Pro-Ala-Thr)]: the “wet weight of thrombus” value in assay [1] (setting [5]) was 50.56 ± 3.96^a mg. The EC50 in assay [2] amounted to 510 ± 75 µM; in assay [3] it was 417 ± 95 µM; in assay [4] it was 416 ± 28 µM.
Take `C[C@H](NC(=O)[C@@H]1CCCN1)C(=O)N[C@@H](CCCCN)C(=O)NCCCC[C@H](NC(=O)[C@@H]1Cc2cc(O)c(O)cc2C(C)(C)N1)C(=O)O` [Compound 5Ak, 3S-6,7-dihydroxy-1,1-dimethyl-1,2,3,4-tetrahydro-isoquinoline-3-acyl-Lys(Pro-Ala-Lys)]: the “wet weight of thrombus” value in assay [1] (Table 4, 5Ak 0.1 nmol/kg i.v.) is 52.16 ± 2.02^a mg; in assay [1] (setting [5]) it was 51.93 ± 2.74^a mg. Besides, in assay [1] (rat, intravenous, 5Ak 0.1 nmol/kg (dose-effect: 0.1, 0.01, 0.001 nmol/kg)), the “Antithrombotic activity, result in words” value is “effectively inhibit the formation of thrombus; also recorded: obvious dose-effect relationship”. Further, the values for the EC50 in assay [2], in assay [3] and in assay [4] were 499 ± 89 µM, 363 ± 94 µM and 422 ± 82 µM, respectively.
For `CC(C)C[C@H](NC(=O)[C@H](C)NC(=O)[C@@H]1CCCN1)C(=O)NCCCC[C@H](NC(=O)[C@@H]1Cc2cc(O)c(O)cc2C(C)(C)N1)C(=O)O` [Compound 5Al, 3S-6,7-dihydroxy-1,1-dimethyl-1,2,3,4-tetrahydro-isoquinoline-3-acyl-Lys(Pro-Ala-Leu)], the “wet weight of thrombus” value in assay [1] (setting [5]) was 54.20 ± 3.93^a mg. Further, the half-maximal effective concentration (EC50) in assay [2] was found to be 503 ± 41 µM; in assay [3], 414 ± 97 µM; in assay [4], 489 ± 32 µM.
